Test results published in paper PMC10178848, “Modulating fast skeletal muscle contraction protects skeletal muscle in animal models of Duchenne muscular dystrophy” (The Journal of Clinical Investigation, 2023).

System: GRMD plasma proteins
Format: in vivo, dog
Details: Post-Treatment to GRMD baseline

O=c1ccc(-c2cnc(OCC(F)(F)F)nc2)nn1Cc1cncc(F)c1 [EDG-5506]
Protein jagged-1 (JAG1): Change from GRMD Baseline (fraction) (Decreased in GRMD): 0.0021 fraction
Retinol-binding protein 4 (RBP4): Change from GRMD Baseline (fraction) (Decreased in GRMD): 0.0032 fraction
Roundabout homolog 2 (ROBO2): Change from GRMD Baseline (fraction) (Decreased in GRMD): -0.0814 fraction
SLIT and NTRK-like protein 5 (SLITRK5): Change from GRMD Baseline (fraction) (Decreased in GRMD): -0.2994 fraction
SPARC (SPARC): Change from GRMD Baseline (fraction) (Decreased in GRMD): -0.1611 fraction
Sclerostin (SOST): Change from GRMD Baseline (fraction) (Decreased in GRMD): 0.0855 fraction
Semaphorin-3E (SEMA3E): Change from GRMD Baseline (fraction) (Decreased in GRMD): -0.1435 fraction
Semaphorin-5A (SEMA5A): Change from GRMD Baseline (fraction) (Decreased in GRMD): -0.108 fraction
Serum albumin (ALB): Change from GRMD Baseline (fraction) (Decreased in GRMD): -0.0304 fraction
Sialic acid-binding Ig-like lectin 6 (SIGLEC6): Change from GRMD Baseline (fraction) (Decreased in GRMD): 0.0534 fraction
Stem cell growth factor-alpha (CLEC11A): Change from GRMD Baseline (fraction) (Decreased in GRMD): -0.1896 fraction
T-lymphocyte surface antigen Ly-9 (LY9): Change from GRMD Baseline (fraction) (Decreased in GRMD): 0.0022 fraction
TGF-beta receptor type-2 (TGFBR2): Change from GRMD Baseline (fraction) (Decreased in GRMD): 0.1736 fraction
Tropomyosin alpha-1 chain (TPM1): Change from GRMD Baseline (fraction) (Decreased in GRMD): 0.8207 fraction
Tumor necrosis factor receptor superfamily member 10B (TNFRSF10B): Change from GRMD Baseline (fraction) (Decreased in GRMD): -0.0324 fraction
Tumor necrosis factor-inducible gene 6 protein (TNFAIP6): Change from GRMD Baseline (fraction) (Decreased in GRMD): 1.4994 fraction
Wnt inhibitory factor 1 (WIF1): Change from GRMD Baseline (fraction) (Decreased in GRMD): -0.1154 fraction
Activated Protein C (PROC): Change from GRMD Baseline (fraction) (Increased in GRMD): 0.4863 fraction
Adiponectin (ADIPOQ): Change from GRMD Baseline (fraction) (Increased in GRMD): 0.0194 fraction
Alanine aminotransferase 1 (GPT): Change from GRMD Baseline (fraction) (Increased in GRMD): 0.0095 fraction
Alpha-2-antiplasmin (SERPINF2): Change from GRMD Baseline (fraction) (Increased in GRMD): -0.0109 fraction
Apolipoprotein D (APOD): Change from GRMD Baseline (fraction) (Increased in GRMD): 0.0538 fraction
Apolipoprotein L1 (APOL1): Change from GRMD Baseline (fraction) (Increased in GRMD): -0.0015 fraction
Asialoglycoprotein receptor 1 (ASGR1): Change from GRMD Baseline (fraction) (Increased in GRMD): -0.0063 fraction
Bone morphogenetic protein 1 (BMP1): Change from GRMD Baseline (fraction) (Increased in GRMD): -0.0803 fraction
Breast cancer anti-estrogen resistance protein 3 (BCAR3): Change from GRMD Baseline (fraction) (Increased in GRMD): -0.0258 fraction
C5a anaphylatoxin (C5): Change from GRMD Baseline (fraction) (Increased in GRMD): -0.0743 fraction
C-C motif chemokine 1 (CCL1): Change from GRMD Baseline (fraction) (Increased in GRMD): 0.0039 fraction
C-C motif chemokine 3 (CCL3): Change from GRMD Baseline (fraction) (Increased in GRMD): -0.0317 fraction
C-X-C motif chemokine 5 (CXCL5): Change from GRMD Baseline (fraction) (Increased in GRMD): 0.0104 fraction
CD63 antigen (CD63): Change from GRMD Baseline (fraction) (Increased in GRMD): -0.0301 fraction
CD97 antigen (CD97): Change from GRMD Baseline (fraction) (Increased in GRMD): 0.0218 fraction
CD109 antigen (CD109): Change from GRMD Baseline (fraction) (Increased in GRMD): 0.0141 fraction
CD177 antigen (CD177): Change from GRMD Baseline (fraction) (Increased in GRMD): -0.108 fraction
Carbonic anhydrase 4 (CA4): Change from GRMD Baseline (fraction) (Increased in GRMD): 0.0571 fraction
Caspase-3 (CASP3): Change from GRMD Baseline (fraction) (Increased in GRMD): -0.049 fraction
Cell adhesion molecule 3 (CADM3): Change from GRMD Baseline (fraction) (Increased in GRMD): 0.0642 fraction
Change from GRMD Baseline (fraction): 1-phosphatidylinositol 4,5-bisphosphate phosphodiesterase gamma-1 (PLCG1) (Increased in GRMD): 0.0175 fraction
Change from GRMD Baseline (fraction): 14-3-3 protein family (YWHAB,YWHAE,YWHAG,YWHAH,YWHAQ,YWHAZ,SFN) (Increased in GRMD): -0.0622 fraction
Change from GRMD Baseline (fraction): 26S proteasome non-ATPase regulatory subunit 7 (PSMD7) (Increased in GRMD): -0.0966 fraction
Change from GRMD Baseline (fraction): 40S ribosomal protein S7 (RPS7) (Increased in GRMD): -0.1727 fraction
Change from GRMD Baseline (fraction): A disintegrin and metalloproteinase with thrombospondin motifs 5 (ADAMTS5) (Increased in GRMD): 0.0247 fraction
Change from GRMD Baseline (fraction): A disintegrin and metalloproteinase with thrombospondin motifs 15 (ADAMTS15) (Increased in GRMD): 0.1616 fraction
Change from GRMD Baseline (fraction): AH receptor-interacting protein (AIP) (Increased in GRMD): 0.0125 fraction
Change from GRMD Baseline (fraction): AMP Kinase (alpha2beta2gamma1) (PRKAA2 PRKAB2 PRKAG1) (Increased in GRMD): -0.177 fraction
Change from GRMD Baseline (fraction): ATP synthase subunit beta, mitochondrial (ATP5B) (Increased in GRMD): 0.0065 fraction
Change from GRMD Baseline (fraction): ATP-dependent RNA helicase DDX19B (DDX19B) (Increased in GRMD): -0.0978 fraction
Change from GRMD Baseline (fraction): Acidic leucine-rich nuclear phosphoprotein 32 family member B (ANP32B) (Increased in GRMD): -0.0886 fraction
Change from GRMD Baseline (fraction): Activin receptor type-1B (ACVR1B) (Increased in GRMD): -0.017 fraction
Change from GRMD Baseline (fraction): Adenylate kinase isoenzyme 1 (AK1) (Increased in GRMD): -0.2055 fraction
Change from GRMD Baseline (fraction): Adenylosuccinate lyase (ADSL) (Increased in GRMD): 0.0105 fraction
Change from GRMD Baseline (fraction): Afamin (AFM) (Increased in GRMD): -0.0171 fraction
Change from GRMD Baseline (fraction): Aflatoxin B1 aldehyde reductase member 2 (AKR7A2) (Increased in GRMD): -0.0506 fraction
Change from GRMD Baseline (fraction): Alcohol dehydrogenase [NADP(+)] (AKR1A1) (Increased in GRMD): -0.1025 fraction
Change from GRMD Baseline (fraction): Aminoacylase-1 (ACY1) (Increased in GRMD): -0.1248 fraction
Change from GRMD Baseline (fraction): Amphoterin-induced protein 2 (AMIGO2) (Increased in GRMD): -0.0371 fraction
Change from GRMD Baseline (fraction): Annexin A6 (ANXA6) (Increased in GRMD): -0.0862 fraction
Change from GRMD Baseline (fraction): Anterior gradient protein 2 homolog (AGR2) (Increased in GRMD): 0.2414 fraction
Change from GRMD Baseline (fraction): Apolipoprotein E (APOE) (Increased in GRMD): 0.0948 fraction
